Assay results: patent US20110281807A1, “PLANT DISEASE CONTROL AGENT COMPRISING D-TAGATOSE AS ACTIVE INGREDIENT, AND PLANT DISEASE CONTROL METHOD” (NATIONAL UNIVERSITY CORPORATION KAGAWA UNIVERSITY, priority 2008, published 2011)
Counter-ions that a name gives are not always drawn. Like-named read-outs stand apart in the source and are kept apart here.

Experiments:
Pyricularia oryze = assay: whole plant or invertebrate; type: in vivo; details: for Preventive value: rice, compound alone
Phytophthora infestans = assay: whole plant or invertebrate; type: in vivo; details: for Preventive value: alone
Pythium aphanidermatum = assay: cucumber damping-off, pot test: soil drench of D-tagatose combined with fungicides; details: for Preventive value: alone, soil drench
Procedure: Five seeds of test plants (cucumber, variety: Sagami hanpaku) were sowed in a pot (5×5 cm), which contains infested soil with Pythium aphanidermatum (mycelium 100 g/1 L soil) and was covered with soil. D-Tagatose was diluted to 5000 ppm and the fungicides were diluted to the concentrations listed in table 18, with distilled water. The pot was drenched with 10 ml of the dilution. After 2 weeks, the disease severity of the test plants was observed and the effectiveness of test sample was judged. Tests were carried out in triplicate using 5 plants for each test set and the preventive value was calculated from the germination rate.

Plasmopara viticola = details: for Preventive value: alone
[1] = test system: Pseudoperonospora cubensis; details: for Preventive value: alone, curative
Procedure: Test plants (cucumber, variety: Sagami hanpaku) were seeded and grown until the one true leaf stage. And then, a sporangium suspension of Pseudoperonospora cubensis containing 1×10^3/ml were spraying for inoculation on the back side of the leaves of test plants and then put for 16 hours in an inoculation chamber (20° C. to 23° C.) to promote disease. For a curative test, the inoculated plants as described above were used.
D-Tagatose was diluted to 5000 ppm and the fungicides were diluted to the concentrations listed in table 15, with distilled water, and 10 ml of the dilution was sprayed. Seven days after inoculation the disease severity of the test plants was observed and the effectiveness of test sample was judged.

[2] = test system: Pseudoperonospora cubensis; details: for Preventive value: alone
Procedure: Test plants (cucumber, variety: Sagami hanpaku) were seeded and grown until the one true leaf stage. D-Tagatose was diluted to 5000 ppm and the fungicides were diluted to the concentrations listed in table 14, with distilled water. And then 10 ml of the dilution was sprayed on the test plant. Three days after spraying of the solution, a sporangium suspension of Pseudoperonospora cubensis containing 1×10^3/ml were inoculated by spraying on test plants and then put for 16 hours in an inoculation chamber (20° C. to 23° C.) to promote disease. Seven days after inoculation the disease severity of the test plants was observed and the effectiveness of the test sample was judged. Tests were carried out using two plants for each test set and the disease severity of the test plants was judged in accordance with the following criteria. The preventive value was calculated from the degree of disease severity.
0 (No lesion) 1 (Lesion area was not more than 40%) 2 ((Lesion area was 40%-80%) 3 (Lesion area was not less than 80%)
Preventive value=100{1−(n/N)} N=disease severity of untreated leaf, n=disease severity of the test leaf Synergistic effect was determined by Colby's equation.

[3] = test system: Erysiphe graminis f.sp. hordei
Procedure: Test plants (barley, variety: Akashinriki) were seeded and grown until the one leaf stage. D-tagatose and fungicide were diluted to 5000 ppm and the concentrations listed in table 21, respectively, with distilled water and 10 ml of the dilution was sprayed thoroughly on the plants. Three days after spraying, a condia suspension of Erysiphe graminis f.sp. hordei was inoculated by spraying on test plants. 7 days after inoculation the disease severity of the test plants was observed and the effectiveness of test sample was judged.

[4] = Pyricularia, in Oryza sativa, 168 h, read-out: Preventive value
[5] = Phytophthora infestans, in Solanum lycopersicum, 168 h, read-out: Preventive value
[6] = Pythium aphanidermatum, in Cucumis sativus, soil, 336 h, read-out: Preventive value
[7] = Plasmopara viticola, 168 h, read-out: Preventive value
[8] = Pseudoperonospora cubensis, in Cucumis sativus, 168 h, read-out: Preventive value
[9] = Puccinia recondita, in Triticum aestivum, 168 h, read-out: Preventive value
[10] = Botrytis cinerea, in Solanum lycopersicum, 168 h, read-out: Preventive value
[11] = Blumeria graminis, in Hordeum vulgare, 168 h, read-out: Preventive value
[12] = Podosphaera fuliginea, in Cucumis sativus, 168 h, read-out: Preventive value

Procedure for Botrytis cinerea: Test plants (tomato, variety: Ogata-fukujyu) were seeded and grown until the three leaf stage. D-Tagatose and fungicide were diluted to 10000 ppm and the concentrations liste in table 23, respectively, with distilled water and 10 ml of the dilution was sprayed on the plants. Three days after spraying the solution, condia suspension of Botrytis cinerea were inoculated by spraying on test plants and then put for 16 hours in an inoculation chamber (20° C. to 23° C.) to promote disease. Seven days after inoculation, the disease severity of the test plants was observed and the effectiveness of test sample was judged.

With `O=C1OCc2c(Cl)c(Cl)c(Cl)c(Cl)c21` [fthalide] the pest or weed control at 10 ppm (Pyricularia oryze; [4]) was 50%.
Compound `CCCOC(=O)NCCCN(C)C` [propamocarb hydrochloride] has a pest or weed control at 250 ppm (Phytophthora infestans; [5]) of 67%, a pest or weed control at 250 ppm (Pythium aphanidermatum; [6]) of 0% and a pest or weed control at 250 ppm (Plasmopara viticola; [7]) of 33%. For the same compound, the pest or weed control at 250 ppm [1, 8] was 40% and the pest or weed control at 250 ppm [2, 8] was 67%.
`COc1ccc(C(=CC(=O)N2CCOCC2)c2ccc(Cl)cc2)cc1OC` [dimethomorph] showed a pest or weed control at 10 ppm (Phytophthora infestans; [5]) of 73%, a pest or weed control at 250 ppm (Pythium aphanidermatum; [6]) of 0% and a pest or weed control at 10 ppm (Plasmopara viticola; [7]) of 50%. It also gave a pest or weed control at 10 ppm [1, 8] of 40% and a pest or weed control at 10 ppm [2, 8] of 67%.
In the case of `Cc1cc(C2CC2)nc(Nc2ccccc2)n1` [cyprodinil], the pest or weed control at 250 ppm (Phytophthora infestans; [5]) is reported as 0%, the pest or weed control at 250 ppm (Pyricularia oryze; [4]) is reported as 73% and the pest or weed control at 250 ppm (Pythium aphanidermatum; [6]) is reported as 0%. It also gave a pest or weed control at 250 ppm (Puccinia recondita; [9]) of 67%, a pest or weed control at 10 ppm (Botrytis cinerea; [10]) of 73% and a pest or weed control at 250 ppm (Plasmopara viticola; [7]) of 0%. The pest or weed control at 250 ppm [1, 8] was 0%, the pest or weed control at 250 ppm [2, 8] was 0% and the pest or weed control at 10 ppm [3, 11] was 17%. The pest or weed control at 10 ppm (Sphaerotheca fuliginea; [12]) was 67%.
With `O=C(Nc1ccccc1-c1ccc(Cl)cc1)c1cccnc1Cl` [boscalid] the pest or weed control at 2 ppm (Puccinia recondita; [9]) was 67%, the pest or weed control at 10 ppm (Botrytis cinerea; [10]) was 67% and the pest or weed control at 0.4 ppm [3, 11] was 17%. For the same compound, the pest or weed control at 0.4 ppm (Sphaerotheca fuliginea; [12]) was 67%.
With `Cc1c(Br)c2ccc(F)cc2n1S(=O)(=O)c1ncn(S(=O)(=O)N(C)C)n1` [amisulbrom] the Preventive value (Pythium aphanidermatum; 50 ppm) was 83.
`CC(C)CC(C)c1sccc1NC(=O)c1cn(C)nc1C(F)(F)F` (stereo not drawn) [penthiopyrad] was tested, and the pest or weed control at 50 ppm (Phytophthora infestans; [5]) was 0%, the pest or weed control at 50 ppm (Pyricularia oryze; [4]) was 40% and the pest or weed control at 250 ppm (Pythium aphanidermatum; [6]) was 0%. The pest or weed control at 0.4 ppm (Puccinia recondita; [9]) was 67%, the pest or weed control at 10 ppm (Botrytis cinerea; [10]) was 67% and the pest or weed control at 50 ppm (Plasmopara viticola; [7]) was 0%. The pest or weed control at 50 ppm [1, 8] was 0%, the pest or weed control at 50 ppm [2, 8] was 0% and the pest or weed control at 0.4 ppm [3, 11] was 67%. It also gave a pest or weed control at 0.4 ppm (Sphaerotheca fuliginea; [12]) of 50%.
`CO/C=C(/C(=O)OC)c1ccccc1Oc1cc(Oc2ccccc2C#N)ncn1` [azoxystrobin] showed a Preventive value (Phytophthora infestans; 10 ppm) of 83, a Preventive value (Pyricularia oryze; 10 ppm) of 83 and a Preventive value (Pythium aphanidermatum; 50 ppm) of 50. The Preventive value (Puccinia recondita; wheat, compound alone, 2 ppm) was 83, the Preventive value (Botrytis cinerea; tomato, compound alone, 50 ppm) was 50 and the Preventive value (Plasmopara viticola; 10 ppm) was 83. For the same compound, the Preventive value ([1]; 10 ppm) was 50, the Preventive value ([2]; 10 ppm) was 50 and the Preventive value ([3]; barley, compound alone, 0.4 ppm) was 50. It also gave a Preventive value (Sphaerotheca fuliginea; cucumber, compound alone, 0.4 ppm) of 67.
`O=[N+]([O-])c1cc(C(F)(F)F)c(Cl)c([N+](=O)[O-])c1Nc1ncc(C(F)(F)F)cc1Cl` [fluazinam] showed a pest or weed control at 10 ppm (Phytophthora infestans; [5]) of 83%, a pest or weed control at 10 ppm (Pyricularia oryze; [4]) of 50% and a pest or weed control at 50 ppm (Puccinia recondita; [9]) of 83%. For the same compound, the pest or weed control at 50 ppm (Botrytis cinerea; [10]) was 67%, the pest or weed control at 10 ppm (Plasmopara viticola; [7]) was 83% and the pest or weed control at 10 ppm [1, 8] was 0%. It also gave a pest or weed control at 10 ppm [2, 8] of 97%, a pest or weed control at 250 ppm [3, 11] of 83% and a pest or weed control at 250 ppm (Sphaerotheca fuliginea; [12]) of 83%.
Compound `OCC1=C[C@H](N[C@H]2C[C@H](CO)[C@@H](O[C@@H]3O[C@H](CO)[C@@H](O)[C@H](O)[C@H]3O)[C@H](O)[C@H]2O)[C@H](O)[C@@H](O)[C@@H]1O` [validamycin] has a pest or weed control at 10 ppm (Pyricularia oryze; [4]) of 50%.
`C[C@H]1O[C@H](O[C@H]2[C@H](O)[C@@H](O)[C@@H](O)[C@H](O)[C@@H]2O)[C@@H](N)C[C@@H]1NC(=N)C(=O)O` [kasugamycin] gave a Preventive value (Pyricularia oryze; 10 ppm) of 73.
Work on `O=C(NCc1ncc(C(F)(F)F)cc1Cl)c1c(Cl)cccc1Cl` [fluopicolide] yielded a Preventive value (Phytophthora infestans; 10 ppm) of 83, a Preventive value (Pyricularia oryze; 250 ppm) of 0 and a Preventive value (Pythium aphanidermatum; 250 ppm) of 83. The Preventive value (Plasmopara viticola; 10 ppm) was 73, the Preventive value ([1]; 10 ppm) was 83 and the Preventive value ([2]; 10 ppm) was 83.
Work on `[Cu+2].[OH-].[OH-]` [cupric hydroxide] yielded a Preventive value (Phytophthora infestans; 50 ppm) of 50, a Preventive value (Plasmopara viticola; 50 ppm) of 0 and a Preventive value ([1]; 50 ppm) of 0. It also gave a Preventive value ([2]; 50 ppm) of 40.
In the case of `CSC1=N[C@@](C)(c2ccccc2)C(=O)N1Nc1ccccc1` [fenamidone], the pest or weed control at 2 ppm (Phytophthora infestans; [5]) is reported as 83%, the pest or weed control at 10 ppm (Pythium aphanidermatum; [6]) is reported as 50% and the pest or weed control at 2 ppm (Plasmopara viticola; [7]) is reported as 83%. For the same compound, the pest or weed control at 2 ppm [1, 8] was 33% and the pest or weed control at 2 ppm [2, 8] was 33%.
